Where “and” joins values, the source holds several entries; their conditions need not be identical. Identical values can stand only once.
What was measured:
drIndy = drIndy (Drosophila melanogaster, UniProt Q9VVT2); settings: for % Control of cDNA-specific [^3H]succinate uptake / cDNA-specific [^3H] succinate uptake: [3H]succinate 40 nM, inhibitor 2.5 mM; for cDNA-specific [^3H] succinate uptake: NaCl buffer pH 7.5; for Citrate uptake, drIndy / Fold Increase of citrate uptake (drIndy vs vector): citrate 35 μM, indicated salt; for Citrate uptake, drIndy: drIndy cDNA-transfected HRPE cells
Sequence of drIndy (Q9VVT2 19-590): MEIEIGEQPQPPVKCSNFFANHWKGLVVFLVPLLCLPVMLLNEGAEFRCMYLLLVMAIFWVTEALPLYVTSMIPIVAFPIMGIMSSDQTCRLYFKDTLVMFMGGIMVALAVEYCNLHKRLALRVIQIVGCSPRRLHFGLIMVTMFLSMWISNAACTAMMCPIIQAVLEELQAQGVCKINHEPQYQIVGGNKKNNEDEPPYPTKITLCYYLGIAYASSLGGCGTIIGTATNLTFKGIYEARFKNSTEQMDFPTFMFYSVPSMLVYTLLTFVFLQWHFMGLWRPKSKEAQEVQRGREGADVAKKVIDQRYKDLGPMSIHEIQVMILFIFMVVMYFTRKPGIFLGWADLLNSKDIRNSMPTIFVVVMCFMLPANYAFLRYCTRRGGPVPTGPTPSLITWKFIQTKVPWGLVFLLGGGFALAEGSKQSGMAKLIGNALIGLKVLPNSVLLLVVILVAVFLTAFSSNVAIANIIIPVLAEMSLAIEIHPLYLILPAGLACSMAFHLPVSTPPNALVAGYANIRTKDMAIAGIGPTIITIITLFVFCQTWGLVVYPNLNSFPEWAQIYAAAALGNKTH

human NaCT = human NaCT (Homo sapiens, UniProt Q86YT5); experiment: Uptake via human NaCT expressed in HRPE cells; type: cell-based; settings: for Citrate Uptake, cDNA: human NaCT cDNA-transfected HRPE; for Citrate Uptake, cDNA / Citrate Uptake, cDNA-specific: pH 7.5, indicated salt; for Citrate Uptake, cDNA-specific, %: relative to NaCl
Sequence of human NaCT (Q86YT5 whole entry): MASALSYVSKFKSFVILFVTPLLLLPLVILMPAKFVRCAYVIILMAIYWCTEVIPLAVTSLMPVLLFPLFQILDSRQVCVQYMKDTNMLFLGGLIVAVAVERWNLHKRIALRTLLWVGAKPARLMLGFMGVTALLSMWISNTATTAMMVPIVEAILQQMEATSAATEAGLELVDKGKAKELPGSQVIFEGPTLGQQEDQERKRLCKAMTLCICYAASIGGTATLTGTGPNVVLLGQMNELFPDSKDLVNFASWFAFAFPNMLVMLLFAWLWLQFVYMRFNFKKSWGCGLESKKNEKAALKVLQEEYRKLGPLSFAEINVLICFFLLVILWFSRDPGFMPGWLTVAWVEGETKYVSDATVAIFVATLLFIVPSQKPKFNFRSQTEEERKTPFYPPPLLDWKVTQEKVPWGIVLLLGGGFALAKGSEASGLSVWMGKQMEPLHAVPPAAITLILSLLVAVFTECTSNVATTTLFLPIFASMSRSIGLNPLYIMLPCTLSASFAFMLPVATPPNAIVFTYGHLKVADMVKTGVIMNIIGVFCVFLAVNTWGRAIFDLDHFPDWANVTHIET

rat NaCT = molecular target: T1, rat NaCT (Rattus norvegicus, UniProt Q8CJ44); experiment: Uptake via rat NaCT expressed in HRPE cells; type: cell-based; settings: for Citrate Uptake, cDNA-specific / Citrate Uptake, cDNA / Citrate Uptake, cDNA-specific, %: [14C]citrate 7 μM; for Citrate Uptake, cDNA-specific / Citrate Uptake, cDNA: pH 7.5, indicated salt; for Citrate Uptake, cDNA: rat NaCT cDNA-transfected HRPE; for Citrate Uptake, cDNA-specific, %: relative to NaCl
T1 sequence (Q8CJ44 1-572): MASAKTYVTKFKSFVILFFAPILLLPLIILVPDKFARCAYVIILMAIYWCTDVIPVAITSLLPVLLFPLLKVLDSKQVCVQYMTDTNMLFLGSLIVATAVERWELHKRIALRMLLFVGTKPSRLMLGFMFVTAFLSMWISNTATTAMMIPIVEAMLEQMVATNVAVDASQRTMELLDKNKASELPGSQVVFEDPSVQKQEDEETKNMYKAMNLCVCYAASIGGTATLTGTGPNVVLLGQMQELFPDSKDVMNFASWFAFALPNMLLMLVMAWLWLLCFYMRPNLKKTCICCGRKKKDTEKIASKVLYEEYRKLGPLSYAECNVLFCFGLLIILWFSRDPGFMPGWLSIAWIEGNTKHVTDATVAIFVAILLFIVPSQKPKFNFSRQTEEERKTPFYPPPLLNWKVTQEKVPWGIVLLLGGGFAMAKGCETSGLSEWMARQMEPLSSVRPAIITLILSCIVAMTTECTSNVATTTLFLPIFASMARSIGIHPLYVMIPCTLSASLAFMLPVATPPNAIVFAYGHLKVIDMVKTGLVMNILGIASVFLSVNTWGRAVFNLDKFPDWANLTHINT

mouse NaCT = molecular target: T2, mouse NaCT (Mus musculus, UniProt Q67BT3); experiment: Transport via mouse NaCT expressed in HRPE cells; type: cell-based
T2 sequence (Q67BT3 1-572): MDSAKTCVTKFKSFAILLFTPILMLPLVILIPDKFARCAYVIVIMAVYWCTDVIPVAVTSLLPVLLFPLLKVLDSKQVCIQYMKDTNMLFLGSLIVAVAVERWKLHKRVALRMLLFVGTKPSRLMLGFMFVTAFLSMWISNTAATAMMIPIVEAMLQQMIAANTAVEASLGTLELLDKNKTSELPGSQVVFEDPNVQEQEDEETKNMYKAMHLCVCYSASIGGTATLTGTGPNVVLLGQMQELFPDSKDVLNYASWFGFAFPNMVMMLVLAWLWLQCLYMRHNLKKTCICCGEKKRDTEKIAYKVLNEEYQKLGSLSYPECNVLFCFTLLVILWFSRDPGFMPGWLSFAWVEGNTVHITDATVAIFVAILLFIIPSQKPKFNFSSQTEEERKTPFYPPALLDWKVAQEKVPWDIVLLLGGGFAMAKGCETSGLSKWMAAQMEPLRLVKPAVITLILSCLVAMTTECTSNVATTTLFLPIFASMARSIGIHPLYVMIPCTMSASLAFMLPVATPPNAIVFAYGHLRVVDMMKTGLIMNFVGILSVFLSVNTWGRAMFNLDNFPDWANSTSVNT

| Compound | % Control of cDNA-specific [^3H]succinate uptake (drIndy) [%] | Citrate Uptake, cDNA (human NaCT; [14C]-citrate 20 μM) [pmol/10^6 cells/min] | Citrate Uptake, cDNA-specific (human NaCT; [14C]-citrate 20 μM) | Citrate Uptake, cDNA-specific, % (human NaCT) [%] | Citrate uptake, drIndy (drIndy) [pmol/10^6 cells per min] | Fold Increase of citrate uptake (drIndy vs vector) (drIndy) [fold] | Citrate Uptake, cDNA-specific (rat NaCT) [pmol/10^6 cells/min] | Citrate Uptake, cDNA (rat NaCT) [pmol/10^6 cells/min] | Citrate Uptake, cDNA-specific, % (rat NaCT) [%] | other results |
| --- | --- | --- | --- | --- | --- | --- | --- | --- | --- | --- |
| CC(=O)N[C@@H](CC(=O)O)C(=O)O [N-Acetylaspartate] | 43 | – | – | – | – | – | – | – | – | cDNA-specific [^3H] succinate uptake (drIndy): 58.4 ± 1.5 fmol/106 cells per min |
| CNC[C@H](O)[C@@H](O)[C@H](O)[C@H](O)CO.Cl [NMDG chloride, N-methyl-D-glucamine chloride] | – | 1.3 ± 0.2 | −0.1 ± 0.2^ pmol/10^6 cells/min | 0 | 25.4 ± 1.8 | 13.4 | 0.4 ± 0.3 | 1.6 ± 0.3 | 1 | – |
| [Cl-].[Na+] [NaCl] | – | 59.9 ± 3.9 | 58.4 ± 3.9 pmol/10^6 cells/min | 100 | 57.4 ± 3.3 | 26.1 | 38.0 ± 3.3 | 38.8 ± 3.3 | 100 | – |
| [Na+] [Na^+] | – | – | – | – | – | – | – | – | – | Hill coefficient (nH) of Na+ dependence of citrate uptake (rat NaCT): 3.3±0.3; Hill coefficient (nH) of Na+ activation (mouse NaCT): 3.3±0.6 and 2.0±0.3; EC50 (mouse NaCT; read-out: K0.5 for Na+ (half-maximal activation of the transport process)): 72 ± 6 mM |
| CC(=O)C(=O)O [Pyruvate, pyruvate] | 21 | – | – | – | – | – | – | – | – | [^14C]-Citrate Uptake, % (human NaCT; [14C]-citrate 20 μM, unlabeled compound 2.5 mM, none = 100): 108%; [^14C]Citrate uptake, % (rat NaCT; [14C]citrate 14 μM, unlabeled compound 2.5 mM, none = 100): 83%; [^3H]-Succinate transport, % (mouse NaCT; [3H]-succinate 0.1 μM, substrate analog 2 mM, control = 100): 104%; [^14C]-Citrate transport, % (mouse NaCT; [14C]-citrate 10 μM, substrate analog 2 mM, control = 100): 84% |
| O=C([O-])[C@H](O)[C@@H](O)[C@H](O)[C@H](O)CO.[Na+] [Sodium gluconate] | – | 61.7 ± 4.7 | 60.1 ± 4.7 pmol/10^6 cells/min | 103 | 144.2 ± 1.6 | 65.6 | 29.1 ± 2.3 | 29.6 ± 2.3 | 77 | – |
| O=C(O)CC(O)(C(=O)O)C(O)C(=O)O (centres unmarked) [hydroxycitrate] | – | – | – | – | – | – | – | – | – | Inhibition of citrate uptake via NaCT (human NaCT; 0.1 mM hydroxycitrate, human NaCT in HRPE cells): 30-40%; Inhibition of citrate uptake via NaCT (rat NaCT; 0.1 mM hydroxycitrate, rat NaCT in HRPE cells): 30-40% |
| CC(O)CC(=O)O (stereo not drawn) [β-Hydroxybutyrate] | 91 | – | – | – | – | – | – | – | – | cDNA-specific [^3H] succinate uptake (drIndy): 134.0 ± 9.0 fmol/106 cells per min |

From US20050095240A1, “NaCT as a target for lifespan expansion and weight reduction” (Medical College of Georgia Research, priority 2002, published 2005)
